According to patent publication US20040138274A1, “Novel pharmaceuticals” (priority 2002, published 2004):

Tests used:
NEP from human kidney = target: T1, NEP from human kidney (Homo sapiens, UniProt P08473); assay: Assay 2: modified NEP fluorescence assay for potent tight-binding inhibitors; assay type: biochemical; conditions: as determined by Assay 2, substrate Abz-D-Arg-Arg-Leu-EDDnp, read-out: IC50 against NEP
T1 construct: Enzyme: NEP from human kidney (prepared using the method of Kenny and Booth); from tissue; host or cells: human kidney
Procedure: Assay 2: This is a modification of Assay 1 which is adapted for potent tight-binding inhibitors.
Buffer: 50 mM Tris pH 7.4
Buffer containing 4% DMSO: 4 ml DMSO added to 96 ml buffer
Enzyme: NEP from human kidney (prepared using the method of Kenny and Booth, Biochem. J. 142, 575, 1974) aliquots stored at −70° C. The NEP activity of each preparation is determined by using serial dilutions of the preparation in this assay without inhibitor, a dilution that achieves 10 to 15% conversion of substrate is used in inhibitor studies.
Inhibitors: Inhibitors are dissolved in DMSO to give a 10 mM solution then further diluted to 1 mM in DMSO. A further dilution is made (40 μl into 960 μl buffer) to give 4×10^−5M inhibitor in buffer containing 4% DMSO. All further dilutions are made in buffer containing 4% DMSO. Inhibitors are assayed utilising an eight point (half log units) dose response curve in duplicate.
Substrate: The substrate (Abz-D-Arg-Arg-Leu-EDDnp, K. M. Carvalho et al. Analytical Biochem 237, 167-173 (1996)) is stored at −70° C. A 2 mM stock is made in buffer and aliquots stored at −70° C. for up to 1 month.
Stop solution: Phosphoramidon (Sigma R7385) 300 nM in buffer. Aliquots of 300 μM solution are stored at −20° C. and diluted 1000 fold in buffer.
Product: Two samples corresponding to 100% conversion of substrate to product are included in the assay to enable the % substrate turnover to be determined. Add 200 μl of 25 μM product and 100 μl stop solution. A stock of this is generated by incubating 1 ml of 25 μM substrate with 20 μl of enzyme stock overnight at 37° C., aliquot and store at −70° C.
Plates: Black Costar 96 well plate Cat# 3915
Fluorescence reader: BMG Fluostar, read at ex320 em420
1. Add 50 μl of inhibitor (4× assay conc)
3. Add 50 μl of enzyme dilution (1:800)
4. Incubate at 37° C. for 1 hour
5. Initiate the reaction by adding 20 μl of substrate
5. Incubate at 37° C. for 3 hours
6. Add 100 μl of stop solution.
7. Read fluorescence using a FLUOstar. (Ex320/Em420
Included in each assay are:
Non enzyme blanks (enzyme replaced with buffer and compound dilution replaced with 4% DMSO buffer)
Controls (compound dilution replaced with 4% DMSO buffer)
Total product (see below)

hypertensive patients = conditions: added to the ACE inhibitor lisinopril; clinical study involving 37 hypertensive patients; cited from earlier work
hypertensive rats = conditions: cited from earlier work
[1] = system: black patients with essential hypertension; conditions: clinical study of 24 black patients with essential hypertension; cited from earlier work

T1 sequence (P08473 whole entry): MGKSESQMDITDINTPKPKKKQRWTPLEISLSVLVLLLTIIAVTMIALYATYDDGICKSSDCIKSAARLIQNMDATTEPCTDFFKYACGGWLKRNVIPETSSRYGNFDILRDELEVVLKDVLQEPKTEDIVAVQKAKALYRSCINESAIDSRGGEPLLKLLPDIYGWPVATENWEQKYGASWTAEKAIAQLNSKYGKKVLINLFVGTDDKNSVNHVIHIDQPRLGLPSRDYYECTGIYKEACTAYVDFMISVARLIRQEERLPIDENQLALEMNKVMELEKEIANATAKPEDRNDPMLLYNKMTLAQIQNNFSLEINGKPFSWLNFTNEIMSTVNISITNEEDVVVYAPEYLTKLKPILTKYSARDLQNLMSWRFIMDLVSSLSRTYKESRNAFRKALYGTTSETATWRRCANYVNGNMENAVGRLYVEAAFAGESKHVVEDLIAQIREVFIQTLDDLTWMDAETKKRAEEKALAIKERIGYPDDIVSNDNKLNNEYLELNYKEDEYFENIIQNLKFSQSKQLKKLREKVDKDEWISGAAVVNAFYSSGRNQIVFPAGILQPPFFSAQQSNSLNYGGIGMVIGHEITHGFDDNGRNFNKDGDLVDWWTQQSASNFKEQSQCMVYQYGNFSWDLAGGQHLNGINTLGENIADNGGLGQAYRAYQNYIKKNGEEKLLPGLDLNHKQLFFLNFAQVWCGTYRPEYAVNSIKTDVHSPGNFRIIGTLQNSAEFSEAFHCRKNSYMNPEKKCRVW

SMILES | IC50 (NEP from human kidney) [pM] | other results
COCCOC[C@H](CC1(C(=O)N[C@H]2CC[C@@H](C(=O)O)CC2)CCCC1)C(=O)Oc1ccc2c(c1)CCC2 [candoxatril] |  | supine and erect blood pressure (hypertensive patients): marked reduction in both supine and erect blood pressure
COCC[C@H](CC1(C(=O)N[C@@H](Cc2ncc(-c3ccc(F)cc3)o2)C(=O)O)CCCC1)C(=O)O [Example 26] | 300 | 
COCCOC[C@H](CC1(C(=O)N[C@H]2CC[C@@H](C(=O)O)CC2)CCCC1)C(=O)O [candoxatrilat] |  | systolic blood pressure (hypertensive rats): lowers systolic blood pressure
CC1(C)OCC(COC(=O)C(Cc2ccccc2)N[C@@H](Cc2ccccc2)C(=O)NCCC(=O)O)O1 (stereo partly shown) [SCH34826] |  | supine blood pressure [1]: significantly lowered supine blood pressure

Continued, in another order:

IC50 (NEP from human kidney) [pM] | SMILES | other results
300 | COCC[C@H](CC1(C(=O)N[C@@H](Cc2ncc(-c3ccccc3)o2)C(=O)O)CCCC1)C(=O)O [Example 40, (2S)-2-{1-[(1S)-1-Carboxy-2-(5-phenyl-oxazol-2-yl)-ethylcarbamoyl]-cyclopentylmethyl}-4-methoxy-butyric Acid] | 
700 | CCC[C@H](CC1(C(=O)N[C@@H](Cc2ncc(-c3ccccc3)o2)C(=O)O)CCCC1)C(=O)O [Example 29, (2R)-2-{1-[(1S)-1-Carboxy-2-(5-phenyl-oxazol-2-yl)-ethylcarbamoyl]-cyclopentylmethyl}-pentanoic Acid] | 
300 | COCC[C@H](CC1(C(=O)N[C@@H](Cc2ncc(-c3ccc(Cl)cc3)o2)C(=O)O)CCCC1)C(=O)O [Example 30, (2S)-2-(1-{(1S)-1-Carboxy-2-[5-(4-chloro-phenyl)-oxazol-2-yl]-ethylcarbamoyl}-cyclopentylmethyl)-4-methoxy-butyric Acid] | 
